According to US20150250172A1, “USE OF ANTHRANILAMIDE COMPOUNDS IN SOIL AND SEED TREATMENT APPLICATION METHODS” (BASF SE, priority 2012, published 2015):

How the values were obtained:
[1] = system: western corn rootworm (Chrysomelidae: Diabrotica virgifera virgifera); assay: Plant emergence, shoot height and root mass, corn seed treatment against western corn rootworm (B.2.2); assay type: in vivo; conditions: for % Control (Based on root mass relative to infested and uninfested control) / % Control (Based on shoot height relative to infested and uninfested control) / Mean Root Mass / Mean Shoot Height: 7 days after infestation
Experimental: B.2.2 Plant Emergence, Shoot Height and Root Mass in Treatment Against Western Corn Rootworm (Chrysomelidae: Diabrotica virgifera virgifera). The compounds according to the invention, in formulated form, and other diamide compounds (chlorantraniliprole: Altacor® and Coragen®) were tested for activity against western corn rootworm. Pots were filled with soil mixture (1:1 loamy sand:sand) and watered prior to treatment and planting. Formulations were diluted in distilled water and then applied to 20 g corn seed in a volume of 188 μl in a Hege 11 liquid seed treater and spun for 30 s. One seed was planted per pot 1-3 days after treatment. Five replicates (pots) were prepared for each treatment. Pots were arranged in a randomized complete block design in the greenhouse and top watered daily. At 5-6 days after planting (DAP), 12 western corn rootworm larvae (2nd instar) were infested in each pot. After infestation, pots were maintained in a growth chamber (26° C., 10 hours light:14 hours dark) and bottom-watered as needed. Plant emergence and shoot phytotoxicity were evaluated 5 DAP. Shoot height and fresh root mass were evaluated 7 days after infestation (DAI).

[2] = system: Black Cutworm (Agrotis ipsilon); assay: whole plant or invertebrate; assay type: in vivo; conditions: 72 h, 5 ppm a.i./soil (w/w), second-instar larvae, 3 days after infestation, read-out: mortality in comparison with untreated controls
[3] = system: Western Corn Rootworm (Diabrotica virgifera virgifera); assay: whole plant or invertebrate; assay type: in vivo; conditions: 72 h, 50 ppm a.i./soil (w/w), second-instar larvae, 3 days after infestation, read-out: mortality in comparison with untreated controls
[4] = system: seedcorn maggot (Anthomyiidae: Delia platura); assay: Root length of cucumber in treatment against seedcorn maggot (B.2.1); conditions: 9 days after treatment, 7 days after infestation; for % Control (Relative to infested and uninfested solvent blank): cucumber root length; for Mean Root Length: cucumber
[5] = Table EXP-B.2.2-1, 0.5 g ai/kg seed, 13 days after planting
[6] = Table EXP-B.2.2-1, 1.0 g ai/kg seed, 13 days after planting
[7] = Table EXP-B.2.2-1, corn seed treatment, 0.5 g ai/kg seed
[8] = Table EXP-B.2.2-1, corn seed treatment, 1.0 g ai/kg seed
[9] = Table EXP-B.2.2-2, 0.5 g ai/kg seed, 12 days after planting
[10] = Table EXP-B.2.2-2, 1.0 g ai/kg seed, 12 days after planting
[11] = Table EXP-B.2.2-2, corn seed treatment, 0.5 g ai/kg seed
[12] = Table EXP-B.2.2-2, corn seed treatment, 1.0 g ai/kg seed
[13] = Table EXP-B.2.2-2, 1.5 g ai/kg seed, 12 days after planting

| Structure (SMILES) | % Control (Based on root mass relative to infested and uninfested control) [1, 5] | % Control (Based on shoot height relative to infested and uninfested control) [1, 5] | Mean Root Mass [1, 5] | Mean Shoot Height [1, 5] | % Control (Based on root mass relative to infested and uninfested control) [1, 6] | % Control (Based on shoot height relative to infested and uninfested control) [1, 6] | Mean Root Mass [1, 6] | Mean Shoot Height [1, 6] | Plant Emergence (%) 5 days after planting [1, 7] | Plant Emergence (%) 5 days after planting [1, 8] | % Control (Based on root mass relative to infested and uninfested control) [1, 9] | % Control (Based on shoot height relative to infested and uninfested control) [1, 9] | Mean Root Mass [1, 9] | Mean Shoot Height [1, 9] | % Control (Based on root mass relative to infested and uninfested control) [1, 10] | Plant Emergence (%) 5 days after planting [1, 11] | mortality at 5 ppm [2] | mortality at 50 ppm [3] | % Control (Relative to infested and uninfested solvent blank) ([4]; rate 1 ppm) | Mean Root Length ([4]; rate 1 ppm) | also measured |
| --- | --- | --- | --- | --- | --- | --- | --- | --- | --- | --- | --- | --- | --- | --- | --- | --- | --- | --- | --- | --- | --- |
| CCS(CC)=NC(=O)c1cc(Cl)cc(Cl)c1NC(=O)c1cc(C(F)(F)F)nn1-c1ncccc1Cl [Compound I-16, 2-(3-chloro-2-pyridyl)-N-[2,4-dichloro-6-[(diethyl-λ^4-sulfanylidene)carbamoyl]phenyl]-5-(trifluoromethyl)pyrazole-3-carboxamide] | 37% | 76% | 0.541 g | 30.2 cm | 40% | 58% | 0.547 g | 28.6 cm | 100% | 100% | 38% | 100% | 0.590 g | 35.3 cm | 68% | 100% | > 70% | > 70% | 100% | 11.0 cm | % Control (Based on shoot height relative to infested and uninfested control) [1, 10]: 83%; Mean Root Mass [1, 10]: 0.705 g; Mean Shoot Height [1, 10]: 31.2 cm; Plant Emergence (%) 5 days after planting [1, 12]: 100% |
| Cc1cc(Cl)cc(C(=O)N=S(C(C)C)C(C)C)c1NC(=O)c1cc(C(F)(F)F)nn1-c1ncccc1Cl [Compound I-21, 2-(3-chloro-2-pyridyl)-N-[2-methyl-4-chloro-6-[(bis-2-propyl-λ^4-sulfanylidene)carbamoyl]phenyl]-5-(trifluoromethyl)pyrazole-3-carboxamide] | 100% | 49% | 0.688 g | 27.8 cm | 100% | 69% | 0.701 g | 29.6 cm | 100% | 100% | 33% | 86% | 0.570 g | 31.6 cm |  | 100% | > 70% | > 70% |  |  | % Control (Based on root mass relative to infested and uninfested control) [1, 13]: 40%; % Control (Based on shoot height relative to infested and uninfested control) [1, 13]: 83%; Mean Root Mass [1, 13]: 0.598 g; Mean Shoot Height [1, 13]: 31.2 cm; Plant Emergence (%) 5 days after planting ([1]; Table EXP-B.2.2-2, corn seed treatment, 1.5 g ai/kg seed): 100% |
| CC(C)S(=NC(=O)c1cc(Cl)cc(Cl)c1NC(=O)c1cc(C(F)(F)F)nn1-c1ncccc1Cl)C(C)C [Compound I-26, 2-(3-chloro-2-pyridyl)-N-[2,4-dichloro-6-[(bis-2-propyl-λ^4-sulfanylidene)carbamoyl]phenyl]-5-(trifluoromethyl)pyrazole-3-carboxamide] |  |  |  |  |  |  |  |  |  |  |  |  |  |  |  |  | > 70% | > 70% |  |  |  |
| CCS(CC)=NC(=O)c1cc(Cl)cc(C)c1NC(=O)c1cc(C(F)(F)F)nn1-c1ncccc1Cl [Compound I-11, 2-(3-chloro-2-pyridyl)-N-[2-methyl-4-chloro-6-[(diethyl-λ^4-sulfanylidene)carbamoyl]phenyl]-5-(trifluoromethyl)pyrazole-3-carboxamide] | 100% | 36% | 0.680 g | 26.7 cm | 100% | 100% | 0.678 g | 33.8 cm | 100% | 100% | 12% | 49% | 0.490 g | 27.3 cm | 48% | 100% | > 70% | > 70% |  |  | % Control (Based on shoot height relative to infested and uninfested control) [1, 10]: 100%; Mean Root Mass [1, 10]: 0.631 g; Mean Shoot Height [1, 10]: 33.8 cm; Plant Emergence (%) 5 days after planting [1, 12]: 100% |
| CNC(=O)c1cc(Cl)cc(C)c1NC(=O)c1cc(Br)nn1-c1ncccc1Cl [chlorantraniliprole] |  |  |  |  |  |  |  |  |  |  |  |  |  |  |  |  |  |  | 49% | 8.4 cm | % Control (Relative to infested and uninfested solvent blank) ([4]; rate 10 ppm): 63%; Mean Root Length ([4]; rate 10 ppm): 9.0 cm |
| CNC(=O)c1cc(C#N)cc(C)c1NC(=O)c1cc(Br)nn1-c1ncccc1Cl [cyantraniliprole] |  |  |  |  |  |  |  |  |  |  |  |  |  |  |  |  |  |  | 19% | 7.1 cm | % Control (Relative to infested and uninfested solvent blank) ([4]; rate 10 ppm): 93%; Mean Root Length ([4]; rate 10 ppm): 10.3 cm |
